A short description of data set [1]: Viscosity analysis (AR2000 rheometer). It counts as physicochemical. On the procedure:
The viscosity analysis was performed by measuring the relationship of viscosity of a sample to shear rate and rheological property of the sample using AR2000 rheometer (stress control) (from TA Instruments; measuring mold: cone and plate; amount of sample: 1 mL).

Data set [2] can be described thus: In vitro artificial cellulose membrane test (Franz diffusion device). It counts as in vitro ADME. The settings on record: 37° C., 10 hours. Here is the method:
A Franz diffusion device (SUNMEI instruments Co., Ltd, Taiwan) shown in FIG. 5 was used to estimate the ability of pure n-butylidenephthalide (BP) liquid and the pharmaceutical compositions to permeate trough the artificial cellulose membrane, to simulate their permeation through a nasal mucosa. The superficial area of diffusion of the device is about 4.5 cm^2, and the capacity volume of receptor chamber of the device is about 23 mL. […]

Data set [3] is described as follows: Solubility of n-butylidenephthalide in solvents. The settings on record: organic solvent or mixture. The class given is physicochemical.
Data set [4] has as its system 9 L (rat brain gliosarcoma cell line) tumor tissue. Nature of the data set: Intranasal treatment of rats with intracranially transplanted 9 L tumor. The class given is in vivo. On the procedure:
9 L (i.e., a rat brain gliosarcoma cell line) tumor tissue was intracranially transplanted into rats. The test of drug treatment was conducted after the intracranial tumor formed. The test method includes: (i) using 400 mg/kg of chloral hydrate (Sigma-Aldrich Company Ltd.) to anesthetize the rats, shaving the hair on the head of rats after the rats were in a coma, and fixing the rats in a stereotaxic instrument (Lab Standard™ Stereotaxic Instrument); (ii) scissoring the scalp by shears to expose the cranium, setting the bregma as a center, and drilling a 5 mm hole at the positioned drilling site 3 mm right to and 5 mm below the bregma on the cranium by a drill; (iii) clamping the prepared 9 L tumor tissue (1×1×1 mm^3) by a forceps and transplanting it into 3 mm depths within the brain, and then, resting for 1 minute to coagulate the blood, removing the forceps, and coating the bone wax on the hole, lastly, suturing the scalp of rats and administering the rats with antibiotics; (iv) 7 days after the transplantation of tumor tissue, randomly grouping the rats as the following Table 11, and then, sucking a drug (n-butylidenephthalide (BP) or pharmaceutical composition 5) by a pipette and dropping the drug into the nasal cavity of the rats to conduct an intranasal administration, and repeating the administration for 30 days and recording the body weight of rats and the number of dead rats during this medical treatment; and (v) removing the tumor, and then, measuring the length-breadth of tumor by an electronic vernier caliper and calculating the total volume of tumor by using the following Formula 3, measuring the weight of tumor at the same time, and drawing the obtained values into a bar diagram and a curve diagram, to determine the therapeutic effect.

Data set [5] can be described thus: Droplet size, electrical conductivity and zeta potential analyses. The class given is physicochemical. The settings on record: sample with n-butylidenephthalide 200 μg/mL. Here is the method: The pharmaceutical composition was formulated to provide a sample in which the concentration of n-butylidenephthalide is 200 μg/mL. The droplet size, electrical conductivity and zeta potential of the sample were analyzed using a high concentration nano-droplet size and zeta potential meter (Malvern Nano-ZS ZEN-3600).

The subject of the next data set is RPMI 2650 cells. Nature of the data set: In vitro cell line permeation test. The class given is in vitro ADME, human. The settings on record: RPMI 2650 cellular monolayer, 37° C., 6 hours. Here is the method: (§1) [formula] V: Capacity of receptor chamber (mL) C0: Initial supplied concentration of drug (μg/mL) Peff: Permeability coefficient (cm/s) J: Flux (μg/cm^2·s) A: Superficial area of diffusion (cm^2)
(§2) [formula] Change of the concentration along with time under a stable status (μg/mLs)
(§3) RPMI 2650 cells (i.e., a human nasal septum squamous cell line) were seeded in a collagen-coated cell insert with 0.4 μm pore size and cultured for 2 days to lead the cells to form a cellular monolayer on the insert. The cell insert was then transferred into a 12-well plate with 1.5 mL of Hepes buffer inside. 0.5 mL of Hepes buffer containing pure n-butylidenephthalide or the pharmaceutical composition was added into the 12-well plate. Next, the 12-well plate was placed into an incubator (37° C., 5% CO2) and incubated. The buffer in each well of the 12-well plate was collected every 1 hour (6 hours in total), and the absorption spectrum of the sampled buffer was detected by a spectrophotometer at […] wavelength to calculate the concentration of n-butylidenephthalide or the pharmaceutical composition. The permeability coefficient (Peff) and flux (J) were calculated by using the above Formula 1 and Formula 2.

A short description of data set [6]: In vitro cell line permeation test. The class given is in vitro ADME, human. The settings on record: human, RPMI 2650 cellular monolayer, 37° C., read-out: Peff ± SD. On the procedure: as §1, §2, §3
Data set [7] in a line: Room-temperature stability test: appearance of the composition. The settings on record: PBS. It counts as physicochemical. Here is the method:
The stability study of the pharmaceutical composition was performed by: (1) observing the appearance of the pharmaceutical composition after storage at room temperature for 3 or 7 days, and classifying the results into “V” (if the pharmaceutical composition remained homogeneous) and “X” (if the pharmaceutical composition separated into two layers or had precipitation) to evaluate the appearance stability; and (2) analyzing the purity of n-butylidenephthalide by measuring the impurities in the pharmaceutical composition through relative retention time (RRT) using a LCMS instrument with the following conditions.

Another data set deals with GBM 8401 cells. Kind of data set: Cytotoxicity test (IC50 value), MTT cell survival assay. It counts as cell-based. The settings on record: Homo sapiens, 24 hours. Here is the method: GBM 8401 cells (i.e., a human brain glioblastoma multiforme cell line) were cultured in a 96-well culture plate with a cell number of 6×10^3 per well, and treated with pure n-butylidenephthalide (BP) or one of the pharmaceutical compositions for 24 hours. The treatment concentrations of active ingredient, n-butylidenephthalide (BP), were 0 μg/mL (i.e., control group), 12.5 μg/mL, 25 μg/mL, 50 μg/mL, 100 μg/mL and 200 μg/mL, respectively. Then, the half maximal inhibitory concentration (IC50) of each pharmaceutical composition to GBM 8401 cells was analyzed by MTT (3-(4,5-cimethylthiazol-2-yl)-2,5-diphenyl tetrazolium bromide) cell survival assay, to evaluate the cytotoxic effect.

SMILES strings stand for the structures. ≈ marks a conversion by molar mass, not a printed value. A value given as a limit tells only on which side of the number the result lay.

For `CCCC=C1OC(=O)c2ccccc21` [Pure BP, n-butylidenephthalide], the “Average viscosity ± SD” value in [1] (cone and plate, 1 mL sample) was 1.57 ± 0.01 ×10^−2 Pa · s. Moreover, the “Rheological property (Newtonian or non-Newtonian fluid)” value in [1] (viscosity versus shear rate) is “Newtonian fluids”. In addition, the “Flux ± SD” value in [2] is listed as 2.29 ± 0.23 10^−3 μg/cm^2 · s; in the data set with RPMI 2650 cells it was 0.32 ± 0.02 10^−3 μg/cm^2 · s. Further, the “Peff ± SD” value in [2] was 0.76 ± 0.08 10^−6 cm/s. For the same molecule, the solubility in data set [3] (in ethanol) is greater than 222 mg/mL; in [3] (in polyethylene glycol 400, polyethylene glycol 300 or polypropylene glycol), 70 to 120 mg/mL (≈ 372 to 638 mM). In data set [4] (160 mg/kg or 320 mg/kg, compared to control group), the Growth of tumor entry was “effective in inhibiting the growth of tumor”. Moreover, in data set [4] (160 mg/kg, 30 days), the Survival rate entry is “significantly increased and similar survival rates”. Further, the “Volume and weight of tumor” value in data set [4] (160 mg/kg, 30 days) is “significantly reduced and similar volume and weight of tumor”. In data set [5], this molecule showed an Electrical conductivity of 0.02 mS/cm. In [5], this molecule gave a Zeta potential of 0.38 mV. For the same molecule, the Papp at 6 h in data set [6] is 1.59 ± 0.09 ×10⁻⁶ cm/s. Moreover, the “Amount stable in the medium system” value is given as “up to 208 mg/mL” in data set [7] (polyethoxylated castor oil, and ethanol with polypropylene glycol); “up to 1000 mg/mL” in data set [7] (polyethoxylated castor oil, and polyethylene glycol with dimethyl sulfoxide or with ethanol (Examples 1, 5 and 6)). Moreover, the IC50 in the data set on GBM 8401 cells was 70 µg/mL (≈ 0.372 mM).

The values above are taken from US9504751B2, “Stable pharmaceutical composition” (EVERFRONT BIOTECH INC., priority 2014, dated 2016).
